Experiments:
human Gal-3 (hGal-3) = human Gal-3 (hGal-3) (Homo sapiens (Human), UniProt P17931); assay: Competitive binding assay: biotinylated hGal-3 to microplate-adsorbed asialofetuin (ASF); details: Activity on hGal-3; binding to ASF-coated plates, 3 hours at 4° C.; mean values
Summary of the method: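 Biotinylated hGal-3 (300-1000 ng/mL) binding to plate-adsorbed asialofetuin, with DMSO-diluted compound added, incubated 3 h at 4 °C. After washing, bound protein detected with streptavidin-peroxidase (80 ng/mL, 1 h, 4 °C) and ABTS substrate, read spectrophotometrically. IC50 given as mean of several measurements.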

human Gal-1 (hGal-1) = human Gal-1 (hGal-1) (Homo sapiens, UniProt P09382); assay: Competitive binding assay: biotinylated hGal-1 to microplate-adsorbed asialofetuin (ASF); details: Activities on hGal-1; binding to ASF-coated plates, 3 hours at 4° C.; mean values; read-out: Gal-1 IC50
Summary of the method: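 Plate-adsorbed asialofetuin is incubated 3 h at 4 °C with biotinylated hGal-1, optionally its all-serine-substituted cysteine variant, plus compound dilutions. ABTS color after 1 h streptavidin-peroxidase (80 ng/mL) at 4 °C reports binding. Reported IC50 is a mean across repeat runs.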

Chain of human Gal-3 (hGal-3) (P17931 whole entry): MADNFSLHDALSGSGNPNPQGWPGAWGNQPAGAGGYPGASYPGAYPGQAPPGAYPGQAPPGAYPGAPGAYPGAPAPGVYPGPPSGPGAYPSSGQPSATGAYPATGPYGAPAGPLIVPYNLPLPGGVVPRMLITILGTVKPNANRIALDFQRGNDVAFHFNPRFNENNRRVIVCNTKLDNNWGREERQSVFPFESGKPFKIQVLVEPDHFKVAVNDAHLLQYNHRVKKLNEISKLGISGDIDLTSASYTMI
Chain of human Gal-1 (hGal-1) (P09382 2-135 limits assumed): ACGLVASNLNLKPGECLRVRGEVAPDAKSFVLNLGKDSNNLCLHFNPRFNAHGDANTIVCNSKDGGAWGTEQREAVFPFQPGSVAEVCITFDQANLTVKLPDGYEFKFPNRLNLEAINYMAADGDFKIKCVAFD

CO[C@@H]1[C@@H](n2cc(-c3cc(F)c(F)c(F)c3)nn2)[C@@H](O)[C@@H](CO)O[C@@H]1CC1=NOC2(CCC(=O)CC2)C1 [Example 1.66, 3-(((2R,3R,4S,5R,6R)-5-hydroxy-6-(hydroxymethyl)-3-methoxy-4-(4-(3,4,5-trifluorophenyl)-1H-1,2,3-triazol-1-yl)tetrahydro-2H-pyran-2-yl)methyl)-1-oxa-2-azaspiro[4.5]dec-2-en-8-one]
IC50 (human Gal-3 (hGal-3)): 250 nM
IC50 (human Gal-1 (hGal-1)): 2700 nM

COC(=O)CO[C@@H]1[C@@H](n2cc(-c3cc(F)c(F)c(F)c3)nn2)[C@@H](O)[C@@H](CO)O[C@@H]1CC1=NOC2(CCCCC2)C1 [Example 1.68, methyl 2-(((2R,3R,4S,5R,6R)-2-((1-oxa-2-azaspiro[4.5]dec-2-en-3-yl)methyl)-5-hydroxy-6-(hydroxymethyl)-4-(4-(3,4,5-trifluorophenyl)-1H-1,2,3-triazol-1-yl)tetrahydro-2H-pyran-3-yl)oxy)acetate]
IC50 (human Gal-3 (hGal-3)): 220 nM
IC50 (human Gal-1 (hGal-1)): 3700 nM

CCO[C@@H]1[C@@H](n2cc(-c3cc(F)c(F)c(F)c3)nn2)[C@@H](O)[C@@H](CO)O[C@@H]1CC1=NOC2(CCCCC2)C1 [Example 1.69, (2R,3R,4S,5R,6R)-6-((1-oxa-2-azaspiro[4.5]dec-2-en-3-yl)methyl)-5-ethoxy-2-(hydroxymethyl)-4-(4-(3,4,5-trifluorophenyl)-1H-1,2,3-triazol-1-yl)tetrahydro-2H-pyran-3-ol]
IC50 (human Gal-3 (hGal-3)): 300 nM
IC50 (human Gal-1 (hGal-1)): 3100 nM

CNC(=O)CO[C@@H]1[C@@H](n2cc(-c3cc(F)c(F)c(F)c3)nn2)[C@@H](O)[C@@H](CO)O[C@@H]1CC1=NOC2(CCCCC2)C1 [Example 1.70, 2-(((2R,3R,4S,5R,6R)-2-((1-oxa-2-azaspiro[4.5]dec-2-en-3-yl)methyl)-5-hydroxy-6-(hydroxymethyl)-4-(4-(3,4,5-trifluorophenyl)-1H-1,2,3-triazol-1-yl)tetrahydro-2H-pyran-3-yl)oxy)-N-methylacetamide]
IC50 (human Gal-3 (hGal-3)): 240 nM
IC50 (human Gal-1 (hGal-1)): 5100 nM

O=C(CO[C@@H]1[C@@H](n2cc(-c3cc(F)c(F)c(F)c3)nn2)[C@@H](O)[C@@H](CO)O[C@@H]1CC1=NOC2(CCCCC2)C1)N1CCOCC1 [Example 1.71, 2-(((2R,3R,4S,5R,6R)-2-((1-oxa-2-azaspiro[4.5]dec-2-en-3-yl)methyl)-5-hydroxy-6-(hydroxymethyl)-4-(4-(3,4,5-trifluorophenyl)-1H-1,2,3-triazol-1-yl)tetrahydro-2H-pyran-3-yl)oxy)-1-morpholinoethan-1-one]
IC50 (human Gal-3 (hGal-3)): 200 nM
IC50 (human Gal-1 (hGal-1)): 2900 nM

COC(=O)CO[C@@H]1[C@@H](n2cc(-c3ccc(C)c(F)c3F)nn2)[C@@H](O)[C@@H](CO)O[C@@H]1CC1=NOC2(CCC(F)(F)CC2)C1 [Example 1.72, methyl 2-(((2R,3R,4S,5R,6R)-2-((8,8-difluoro-1-oxa-2-azaspiro[4.5]dec-2-en-3-yl)methyl)-4-(4-(2,3-difluoro-4-methylphenyl)-1H-1,2,3-triazol-1-yl)-5-hydroxy-6-(hydroxymethyl)tetrahydro-2H-pyran-3-yl)oxy)acetate]
IC50 (human Gal-3 (hGal-3)): 140 nM
IC50 (human Gal-1 (hGal-1)): 5600 nM

NC(=O)O[C@@H]1[C@@H](n2cc(-c3cc(F)c(F)c(F)c3)nn2)[C@@H](O)[C@@H](CO)O[C@@H]1CC1=NOC2(CCCCC2)C1 [Example 1.73, (2R,3R,4S,5R,6R)-2-((1-oxa-2-azaspiro[4.5]dec-2-en-3-yl)methyl)-5-hydroxy-6-(hydroxymethyl)-4-(4-(3,4,5-trifluorophenyl)-1H-1,2,3-triazol-1-yl)tetrahydro-2H-pyran-3-yl carbamate]
IC50 (human Gal-3 (hGal-3)): 110 nM
IC50 (human Gal-1 (hGal-1)): 6500 nM

CO[C@@H]1[C@@H](n2cc(-c3ccc(C)c(F)c3F)nn2)[C@@H](O)[C@@H](CO)O[C@@H]1CC1=NO[C@]2(CC[C@H](NCC(F)F)CC2)C1 [Example 1.74, (2R,3R,4S,5R,6R)-4-(4-(2,3-difluoro-4-methylphenyl)-1H-1,2,3-triazol-1-yl)-6-(((5r,8R)-8-((2,2-difluoroethyl)amino)-1-oxa-2-azaspiro[4.5]dec-2-en-3-yl)methyl)-2-(hydroxymethyl)-5-methoxytetrahydro-2H-pyran-3-ol]
IC50 (human Gal-3 (hGal-3)): 120 nM
IC50 (human Gal-1 (hGal-1)): 2400 nM

CO[C@@H]1[C@@H](n2cc(-c3ccc(Cl)c(F)c3F)nn2)[C@@H](O)[C@@H](CO)O[C@@H]1CC1=NOC2(C1)CN(C(=O)OC(C)(C)C)C2 [Example 1.80, tert-butyl 7-(((2R,3R,4S,5R,6R)-4-(4-(4-chloro-2,3-difluorophenyl)-1H-1,2,3-triazol-1-yl)-5-hydroxy-6-(hydroxymethyl)-3-methoxytetrahydro-2H-pyran-2-yl)methyl)-5-oxa-2,6-diazaspiro[3.4]oct-6-ene-2-carboxylate]
IC50 (human Gal-3 (hGal-3)): 310 nM
IC50 (human Gal-1 (hGal-1)): 7200 nM

CO[C@@H]1[C@@H](n2cc(-c3ccc(C)c(F)c3F)nn2)[C@@H](O)[C@@H](CO)O[C@@H]1CC1=NOC2(C1)CC1CCC2C1 (stereo partly drawn) [Example 1.81, (2R,3R,4S,5R,6R)-6-((4′H-spiro[bicyclo[2.2.1]heptane-2,5′-isoxazol]-3′-yl)methyl)-4-(4-(2,3-difluoro-4-methylphenyl)-1H-1,2,3-triazol-1-yl)-2-(hydroxymethyl)-5-methoxytetrahydro-2H-pyran-3-ol]
IC50 (human Gal-3 (hGal-3)): 60 nM
IC50 (human Gal-1 (hGal-1)): 2370 nM

CO[C@@H]1[C@@H](n2cc(-c3ccc(C)c(F)c3F)nn2)[C@@H](O)[C@@H](CO)O[C@@H]1CC1=NOC2(C1)CC1CCC(C1)C2 (stereo partly drawn) [Example 1.82, (2R,3R,4S,5R,6R)-6-((4′H-spiro[bicyclo[3.2.1]octane-3,5′-isoxazol]-3′-yl)methyl)-4-(4-(2,3-difluoro-4-methylphenyl)-1H-1,2,3-triazol-1-yl)-2-(hydroxymethyl)-5-methoxytetrahydro-2H-pyran-3-ol]
IC50 (human Gal-3 (hGal-3)): 50 nM
IC50 (human Gal-1 (hGal-1)): 1950 nM

CO[C@@H]1[C@@H](n2cc(-c3cc(F)c(F)c(F)c3)nn2)[C@@H](O)[C@@H](CO)O[C@@H]1CC1=NOC2(CCC(O)CC2)C1 (stereo partly drawn) [Example 2.01, 3-(((2R,3R,4S,5R,6R)-5-hydroxy-6-(hydroxymethyl)-3-methoxy-4-(4-(3,4,5-trifluorophenyl)-1H-1,2,3-triazol-1-yl)tetrahydro-2H-pyran-2-yl)methyl)-1-oxa-2-azaspiro[4.5]dec-2-en-8-ol]
IC50 (human Gal-3 (hGal-3)): 250 nM
IC50 (human Gal-1 (hGal-1)): 2200 nM

CO[C@@H]1[C@@H](n2cc(-c3cc(F)c(F)c(F)c3)nn2)[C@@H](O)[C@@H](CO)O[C@@H]1CC1=NO[C@]2(CC[C@@H](O)CC2)C1 [Example 2.02, (5s,8S)-3-(((2R,3R,4S,5R,6R)-5-hydroxy-6-(hydroxymethyl)-3-methoxy-4-(4-(3,4,5-trifluorophenyl)-1H-1,2,3-triazol-1-yl)tetrahydro-2H-pyran-2-yl)methyl)-1-oxa-2-azaspiro[4.5]dec-2-en-8-ol]
IC50 (human Gal-3 (hGal-3)): 700 nM
IC50 (human Gal-1 (hGal-1)): 5100 nM

CO[C@@H]1[C@@H](n2cc(-c3cc(F)c(F)c(F)c3)nn2)[C@@H](O)[C@@H](CO)O[C@@H]1CC1=NO[C@]2(CC[C@H](O)CC2)C1 [Example 2.03, (5r,8R)-3-(((2R,3R,4S,5R,6R)-5-hydroxy-6-(hydroxymethyl)-3-methoxy-4-(4-(3,4,5-trifluorophenyl)-1H-1,2,3-triazol-1-yl)tetrahydro-2H-pyran-2-yl)methyl)-1-oxa-2-azaspiro[4.5]dec-2-en-8-ol]
IC50 (human Gal-3 (hGal-3)): 190 nM
IC50 (human Gal-1 (hGal-1)): 2000 nM

CO[C@@H]1[C@@H](n2cc(-c3cc(F)c(F)c(F)c3)nn2)[C@@H](O)[C@@H](CO)O[C@@H]1CC1=NO[C@]2(CC[C@H](NC(C)=O)CC2)C1 [Example 2.04, N-((5r,8R)-3-(((2R,3R,4S,5R,6R)-5-hydroxy-6-(hydroxymethyl)-3-methoxy-4-(4-(3,4,5-trifluorophenyl)-1H-1,2,3-triazol-1-yl)tetrahydro-2H-pyran-2-yl)methyl)-1-oxa-2-azaspiro[4.5]dec-2-en-8-yl)acetamide]
IC50 (human Gal-3 (hGal-3)): 61 nM
IC50 (human Gal-1 (hGal-1)): 810 nM

CO[C@@H]1[C@@H](n2cc(-c3cc(F)c(F)c(F)c3)nn2)[C@@H](O)[C@@H](CO)O[C@@H]1CC1=NO[C@]2(CC[C@@H](NC(C)=O)CC2)C1 [Example 2.05, N-((5s,8S)-3-(((2R,3R,4S,5R,6R)-5-hydroxy-6-(hydroxymethyl)-3-methoxy-4-(4-(3,4,5-trifluorophenyl)-1H-1,2,3-triazol-1-yl)tetrahydro-2H-pyran-2-yl)methyl)-1-oxa-2-azaspiro[4.5]dec-2-en-8-yl)acetamide]
IC50 (human Gal-3 (hGal-3)): 450 nM
IC50 (human Gal-1 (hGal-1)): 3600 nM

CO[C@@H]1[C@@H](n2cc(-c3ccc(C)c(F)c3F)nn2)[C@@H](O)[C@@H](CO)O[C@@H]1CC1=NO[C@]2(CC[C@H](NC(C)=O)CC2)C1 [Example 2.06]
IC50 (human Gal-3 (hGal-3)): 71 nM
IC50 (human Gal-1 (hGal-1)): 340 nM

CO[C@@H]1[C@@H](n2cc(-c3ccc(Cl)c(F)c3F)nn2)[C@@H](O)[C@@H](CO)O[C@@H]1CC1=NO[C@]2(CC[C@H](NC(C)=O)CC2)C1 [Example 2.07, N-((5r,8R)-3-(((2R,3R,4S,5R,6R)-4-(4-(4-chloro-2,3-difluorophenyl)-1H-1,2,3-triazol-1-yl)-5-hydroxy-6-(hydroxymethyl)-3-methoxytetrahydro-2H-pyran-2-yl)methyl)-1-oxa-2-azaspiro[4.5]dec-2-en-8-yl)acetamide]
IC50 (human Gal-3 (hGal-3)): 62 nM
IC50 (human Gal-1 (hGal-1)): 910 nM

CO[C@@H]1[C@@H](n2cc(-c3ccc(F)c(F)c3F)nn2)[C@@H](O)[C@@H](CO)O[C@@H]1CC1=NO[C@]2(CC[C@H](NC(C)=O)CC2)C1 [Example 2.08, N-((5r,8R)-3-(((2R,3R,4S,5R,6R)-5-hydroxy-6-(hydroxymethyl)-3-methoxy-4-(4-(2,3,4-trifluorophenyl)-1H-1,2,3-triazol-1-yl)tetrahydro-2H-pyran-2-yl)methyl)-1-oxa-2-azaspiro[4.5]dec-2-en-8-yl)acetamide]
IC50 (human Gal-3 (hGal-3)): 52 nM
IC50 (human Gal-1 (hGal-1)): 310 nM
